This note sets out measurements from patent US4833144A, “2-Alkylsulfinyl-4(3H)-quinazolinone derivatives and pharmaceutical compositions” (Nisshin Flour Milling Co., Ltd., priority 1987, dated 1989).

Each structure is given as a SMILES string.

The subject of one data set is indomethacin induced ulcer. The data set can be described thus: antiulcer activity: suppression of indomethacin induced ulcer in mice. In kind it is in vivo, ddY series male mice. The settings on record: Mus musculus, po, 4 h, read-out: Suppression rate of indomethacin induced ulcer, 100 mg/kg, p.o. The method, then:
The antiulcer activity of the compounds of this invention was determined by the following method. Four-week-old ddY series male mice were used as the test animals after they were fasted for 24 hours. Each test compound suspended in a 1% gum arabic solution was administerd to the stomach of each mouse at a dose of 100 mg/kg, and then, after 30 minutes, 20 mg/kg of indomethacin was administered orally. Four hours after the administration of indomethacin, the stomach of mouse was extirpated and the length of ulcers was measured. Then, the ulcer index was determined by the total sum of the scores as calculated in Table 1.
For the molecule `CN/C(=N/CCSCc1nc[nH]c1C)NC#N` [Cimetidine, reference compound], the inhibition in vivo at 100 mg/kg turned out to be 40%.

Still in this data set, the particulars now being: po; mouse, 100 mg/kg p.o. 30 min before 20 mg/kg indomethacin; ulcer index 4 h later, vs control group; read-out: Suppression rate of indomethacin induced ulcer, 100 mg/kg, p.o.
As for `COc1ccc(-n2c([S+]([O-])Cc3nccc(OC)c3C)nc3ccc(C)cc3c2=O)cc1` (stereo not drawn) [2-[(4-methoxy-3-methylpyridin-2-yl)methylsulfinyl]-3-(4-methoxyphenyl)-6-methyl-4(3H)-quinazolinone], the inhibition in vivo at 100 mg/kg stood at 51%.

For `COc1cc(C[S+]([O-])c2nc3ccccc3c(=O)n2-c2ccccc2)ncc1C` (stereo not drawn) [2-[(4-methoxy-5-methylpyridin-2-yl)methylsulfinyl]-3-phenyl-4(3H)-quinazolinone], the inhibition in vivo at 100 mg/kg came out at 82%.

For the molecule `COc1cc(C[S+]([O-])c2nc3ccc(C)cc3c(=O)n2-c2ccccc2)ncc1C` (stereo not drawn) [2-[(4-methoxy-5-methylpyridine-2-yl)methylsulfinyl]-6-methyl-3-phenyl-4(3H)-quinazolinone], the inhibition in vivo at 100 mg/kg was determined as 59%.

`Cc1ccnc(C[S+]([O-])c2nc3ccccc3c(=O)n2-c2ccccc2)c1` (stereo not drawn) [2-[(4-methylpyridin-2-yl)methylsulfinyl]-3-phenyl-4(3H)-quinazolinone]: the inhibition in vivo at 100 mg/kg came to 68%.

`O=c1c2ccccc2nc([S+]([O-])Cc2ccccn2)n1-c1cccc2ccccc12` (stereo not drawn) [3-(1-naphthyl)-2-(2-pyridylmethylsulfinyl)-4(3H)-quinazolinone]: the inhibition in vivo at 100 mg/kg was 39%.

Turning to `O=c1c2ccccc2nc([S+]([O-])Cc2ccccn2)n1-c1ccccc1Cl` (stereo not drawn) [3-(2-chlorophenyl)-2-(2-pyridylmethylsulfinyl)-4(3H)-quinazolinone], the inhibition in vivo at 100 mg/kg was found to be 56%.

Regarding `COc1cccc(-n2c([S+]([O-])Cc3ccccn3)nc3ccccc3c2=O)c1` (stereo not drawn) [3-(3-methoxyphenyl)-2-(2-pyridylmethylsulfinyl)-4(3H)-quinazolinone], the inhibition in vivo at 100 mg/kg was 73%.

In the case of `COc1ccc(-n2c([S+]([O-])Cc3ccccn3)nc3ccccc3c2=O)cc1` (stereo not drawn) [3-(4-methoxyphenyl)-2-(2-pyridylmethylsulfinyl)-4(3H)-quinazolinone], the inhibition in vivo at 100 mg/kg stood at 72%.

As for `Cc1ccc(-n2c([S+]([O-])Cc3ccccn3)nc3ccccc3c2=O)cc1` (stereo not drawn) [3-(4-methylphenyl)-2-(2-pyridylmethylsulfinyl)-4(3H)-quinazolinone], the inhibition in vivo at 100 mg/kg stood at 73%.

Turning to `O=c1c2ccccc2nc([S+]([O-])Cc2ccccn2)n1-c1ccccc1` (stereo not drawn) [3-Phenyl-2-(2-pyridylmethylsulfinyl)-4(3H)-quinazolinone], the inhibition in vivo at 100 mg/kg was found to be 83%.

Consider `O=c1c2ccccc2nc([S+]([O-])Cc2ccncc2)n1-c1ccccc1` (stereo not drawn) [3-Phenyl-2-(4-pyridylmethylsulfinyl)-4(3H)-quinazolinone], for which the inhibition in vivo at 100 mg/kg stood at 69%.

As for `CC(C)Cn1c([S+]([O-])Cc2ccccn2)nc2ccccc2c1=O` (stereo not drawn) [3-isobutyl-2-(2-pyridylmethylsulfinyl)-4(3H)-quinazolinone], the inhibition in vivo at 100 mg/kg stood at 40%.

On to `O=c1c2ccccc2nc([S+]([O-])Cc2cccnc2)n1-c1ccccc1` (stereo not drawn) [3-phenyl-2-(3-pyridylmethylsulfinyl)-4(3H)-quinazolinone], for which the inhibition in vivo at 100 mg/kg came to 55%.

`O=c1c2ccccc2nc([S+]([O-])Cc2ccnc3ccccc23)n1-c1ccccc1` (stereo not drawn) [3-phenyl-2-(4-quinolylmethylsulfinyl)-4(3H)-quinazolinone]: the inhibition in vivo at 100 mg/kg amounted to 64%.

As to `Cc1cccc2nc([S+]([O-])Cc3ccccn3)n(-c3ccccc3)c(=O)c12` (stereo not drawn) [5-methyl-3-phenyl-2-(2-pyridylmethylsulfinyl)-4(3H)-quinazolinone], the inhibition in vivo at 100 mg/kg was found to be 77%.

Regarding `Cc1ccc2nc([S+]([O-])Cc3ccccn3)n(-c3ccccc3)c(=O)c2c1` (stereo not drawn) [6-methyl-3-phenyl-2-(2-pyridylmethylsulfinyl)-4(3H)-quinazolinone], the inhibition in vivo at 100 mg/kg came to 56%.

System in another data set: not listed separately
Put plainly: acute oral toxicity (LD50). The settings on record: in vivo.
`O=c1c2ccccc2nc([S+]([O-])Cc2ccccn2)n1-c1ccccc1` (stereo not drawn) [3-Phenyl-2-(2-pyridylmethylsulfinyl)-4(3H)-quinazolinone] gave an LD50 above 3000 mg/kg.
